Among the data in EP0859607B1, “GUANIDINO PROTEASE INHIBITORS” (3-DIMENSIONAL PHARMACEUTICALS, INC., priority 1995, dated 1997) are Ki values, retold here.

Where a name gives a salt, the structure may show the parent alone.

Common to all, as to assay type: biochemical
One test addresses T1, human α-thrombin (Homo sapiens, UniProt P00734).
T1 construct: Purified human α-thrombin was diluted into assay buffer; purchased Enzyme Research Laboratories (South Bend, Indiana)
The test is described as follows: In vitro inhibition of purified enzymes, Ki determination: thrombin. To be noted: Enzyme: Thrombin; substrate Suc-Ala-Ala-Pro-Arg-pNA 20 µM; pH 7.5, 37°C. An excerpt: (§1) Reagents: All buffer salts were obtained from Sigma Chemical Company (St. Louis, MO), and were of the highest purity available. The enzyme substrates, N-benzoyl-Phe-Val-Arg-p-nitroanilide (Sigma B7632), N-benzoyl-Ile-Glu-Gly-Arg-p-nitroanilide (Sigma B2291), N-p-tosyl-Gly-Pro-Lys-p-nitroanilide (Sigma T6140), and N-succinyl-Ala-Ala-Pro-Phe-p-nitroanilide (Sigma S7388) were all obtained from Sigma.
(§2) Human α-thrombin. human factor Xa, and human plasmin were obtained from Enzyme Research Laboratories (South Bend, Indiana). Bovine α-chymotrypsin and bovine trypsin were obtained from Sigma.
Ki Determinations: All assays are based on the ability of the test compound to inhibit the enzyme-catalyzed hydrolysis of a peptide p-nitroanilide substrate. […] The final concentration for each of the substrates is listed below. In general, substrate concentrations are lower than the experimentally determined value for Km. Test compounds are prepared as a 0.16 mg/mL solution in DMSO. Dilutions are prepared in DMSO yielding 8 final concentrations encompassing a 200-fold concentration range. Enzyme solutions are prepared at the concentrations listed below in assay buffer.
Data corresponding to less than 10% of the total substrate hydrolysis were used in the calculations. The ratio of the velocity (rate of the change in absorbance as a function of time) for a sample containing no inhibitor is divided by the velocity of a sample containing inhibitor, and is plotted as a function of inhibitor concentration. The data are fit to a linear regression, and the value of the slope of the line calculated. The inverse of the slope is the experimentally determined Ki value.
Thrombin: Thrombin activity was assessed as the ability to hydrolyze the substrate Suc-Ala-Ala-Pro-Arg-pNA. […] Final DMSO concentration was 0.3%. […] Final reagent concentrations were: [thrombin] = 0.5 nM, [Suc-Ala-Ala-Pro-Arg-pNA] = 20 µM.

The next test addresses T2, human Factor Xa (Homo sapiens, UniProt P00742).
T2 construct: purchased Enzyme Research Laboratories (South Bend, Indiana)
The test is described as follows: In vitro inhibition of purified enzymes, Ki determination: factor Xa. Conditions: Enzyme: Factor Xa; substrate Bz-Ile-Glu-Gly-Arg-pNA 51 µM; pH 7.5, 37°C.
Description: as §1, §2
(§3) Ki Determinations: All assays are based on the ability of the test compound to inhibit the enzyme-catalyzed hydrolysis of a peptide p-nitroanilide substrate. In a typical Ki determination, substrate is prepared in DMSO, and diluted into an assay buffer consisting of 50 mM HEPES, 200 mM NaCI, pH 7.5. The final concentration for each of the substrates is listed below. In general, substrate concentrations are lower than the experimentally determined value for Km. Test compounds are prepared as a 0.16 mg/mL solution in DMSO. Dilutions are prepared in DMSO yielding 8 final concentrations encompassing a 200-fold concentration range. […]
Factor Xa: Factor Xa activity was assessed as the ability to hydrolyze the substrate Bz-Ile-Glu-Gly-Arg-pNA. […]

In a further test the target is T3, human plasmin (Homo sapiens, UniProt P00747).
T3 construct: Purified human plasmin was diluted into assay buffer; purchased Enzyme Research Laboratories (South Bend, Indiana)
T3 sequence (P00747 581-810 limits assumed): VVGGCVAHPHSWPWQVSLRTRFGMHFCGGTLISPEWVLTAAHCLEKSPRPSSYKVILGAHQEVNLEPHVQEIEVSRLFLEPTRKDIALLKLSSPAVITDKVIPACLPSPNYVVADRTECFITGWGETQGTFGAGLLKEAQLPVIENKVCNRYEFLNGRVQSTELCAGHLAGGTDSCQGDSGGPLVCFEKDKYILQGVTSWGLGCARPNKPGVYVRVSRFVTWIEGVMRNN
T3 sequence (P00747 97-580 partner limits assumed): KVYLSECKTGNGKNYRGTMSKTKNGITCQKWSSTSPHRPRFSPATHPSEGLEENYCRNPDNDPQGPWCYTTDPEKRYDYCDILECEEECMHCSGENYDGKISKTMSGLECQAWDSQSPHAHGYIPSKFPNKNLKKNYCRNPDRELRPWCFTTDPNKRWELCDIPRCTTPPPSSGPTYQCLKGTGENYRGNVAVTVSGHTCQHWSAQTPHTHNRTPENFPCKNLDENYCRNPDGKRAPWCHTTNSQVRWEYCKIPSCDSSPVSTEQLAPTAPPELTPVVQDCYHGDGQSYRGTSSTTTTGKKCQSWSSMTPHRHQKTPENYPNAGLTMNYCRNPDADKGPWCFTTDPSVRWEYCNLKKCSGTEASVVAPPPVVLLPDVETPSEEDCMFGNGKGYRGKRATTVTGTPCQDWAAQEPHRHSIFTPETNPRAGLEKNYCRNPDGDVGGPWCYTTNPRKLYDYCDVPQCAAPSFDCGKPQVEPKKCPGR
The test can be described thus: In vitro inhibition of purified enzymes, Ki determination: plasmin. Conditions: Enzyme: Plasmin; substrate Tos-Gly-Pro-Lys-pNA 22 µM; pH 7.5, 37°C.
Description: as §1, §2
as §3, with “range. Enzyme solutions are prepared at the concentrations listed below in assay buffer.” for “range.”
Plasmin: Plasmin activity was assessed as the ability to hydrolyze the substrate Tos-Gly-Pro-Lys-pNA. […]

A further test addresses T4, bovine trypsin (Bos taurus, UniProt P00760).
T4 construct: Purified bovine trypsin was diluted into assay buffer; purchased Sigma
T4 sequence (P00760 24-246): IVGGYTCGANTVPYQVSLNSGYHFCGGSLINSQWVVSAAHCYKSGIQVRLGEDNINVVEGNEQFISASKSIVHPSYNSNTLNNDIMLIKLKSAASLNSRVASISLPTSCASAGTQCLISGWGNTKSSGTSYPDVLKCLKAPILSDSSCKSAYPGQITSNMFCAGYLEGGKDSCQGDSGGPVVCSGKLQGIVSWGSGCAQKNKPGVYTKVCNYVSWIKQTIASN
The test can be described thus: In vitro inhibition of purified enzymes, Ki determination: trypsin. To be noted: Enzyme: Trypsin; substrate Bz-Phe-Val-Arg-pNA 14 µM; pH 7.5, 37°C.
Description: as §1, §2
as §3, with “range. Enzyme solutions are prepared at the concentrations listed below in assay buffer.” for “range.”
Trypsin: Trypsin activity was assessed as the ability to hydrolyze the substrate Bz-Phe-Val-Arg-pNA. […]

A further test concerns the target T5, bovine α-chymotrypsin (Bos taurus, UniProt P00766).
T5 construct: Purified bovine α-chymotrypsin was diluted into assay buffer; purchased Sigma
The test can be described thus: In vitro inhibition of purified enzymes, Ki determination: chymotrypsin. Conditions: Enzyme: Chymotrypsin; substrate Suc-Ala-Ala-Pro-Phe-pNA 14 µM; pH 7.5, 37°C.
Description: as §1, §2, §3
Chymotrypsin: Chymotrypsin activity was assessed as the ability to hydrolyze the substrate Suc-Ala-Ala-Pro-Phe-pNA. […]

T2 sequence (P00742 235-488 limits assumed): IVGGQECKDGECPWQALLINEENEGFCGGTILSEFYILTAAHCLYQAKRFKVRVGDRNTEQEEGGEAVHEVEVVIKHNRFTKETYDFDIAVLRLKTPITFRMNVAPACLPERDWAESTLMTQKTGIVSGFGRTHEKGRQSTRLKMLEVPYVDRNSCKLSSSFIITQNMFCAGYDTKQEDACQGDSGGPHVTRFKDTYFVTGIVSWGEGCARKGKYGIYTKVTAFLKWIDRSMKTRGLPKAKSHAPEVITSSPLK
T2 sequence (P00742 41-179 partner limits assumed): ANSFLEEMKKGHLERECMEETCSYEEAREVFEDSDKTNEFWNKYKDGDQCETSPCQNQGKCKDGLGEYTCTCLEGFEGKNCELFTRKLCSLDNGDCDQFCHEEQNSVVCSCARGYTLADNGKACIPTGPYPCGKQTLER

As to “2,3-Dichlorobenzenesulfonic acid 3-[[1-(aminoiminomethyl)piperidin-4-yl]methoxy]-5-methylphenyl ester hydrochloride [Example 42]”, the affinity at human α-thrombin, expressed as Ki, was 21 nM.

“2-Chlorobenzenesulfonic acid 3-[2-[1-(aminoiminomethyl)piperazin-4-yl]ethoxy]-5-methylphenyl ester diacetic acid salt [Example 6]” yielded an inhibition constant (Ki) at human α-thrombin of 330 nM.

As for “2-Chlorobenzenesulfonic acid 3-[[1-(aminoiminomethyl)piperidin-3-yl]methoxy]-5-methylphenyl ester [Example 4]”, the affinity on human Factor Xa, expressed as Ki, was 58100 nM.

For the compound “2-Chlorobenzenesulfonic acid 3-[[1-(aminoiminomethyl)piperidin-4-yl]methoxy]-5-chlorophenyl ester hydrochloride [Example 24]”, on human α-thrombin, the inhibition constant Ki was determined as 40 nM.

The compound “2-Chlorobenzenesulfonic acid 3-[[1-(aminoiminomethyl)piperidin-4-yl]methoxy]-5-hydroxymethylphenylester [Example 44]” showed a Ki at human α-thrombin of 6900 nM.

Consider “2-Chlorobenzenesulfonic acid 3-[[1-(aminoiminomethyl)piperidin-4-yl]methoxy]phenyl ester [Example 1]”, for which the affinity at human α-thrombin, expressed as Ki, was 250 nM.

“2-Chlorobenzenesulfonic acid, 3-[[1-(aminoiminomethyl)piperidin-4-yl]methoxy]-5-methylphenyl ester [Example 3]” had an inhibition constant (Ki) on human α-thrombin of 8 nM.

At human α-thrombin, “2-Trifluoromethylbenzenesulfonic acid 3-[[1-(aminoiminomethyl)piperidin-4-yl]methoxy]-5-methylphenyl ester acetic acid salt [Example 38]” gave a Ki of 19 nM.

Regarding “3-Amino-2-chlorobenzenesulfonic acid 3-[[1-(aminoiminomethyl)piperidin-4-yl]methoxy]-5-methylphenyl ester dihydrochloride [Example 33]”, the affinity at human α-thrombin corresponds to a Ki of 34 nM.

At human plasmin, `N=C(N)N1CCN(CCOc2cccc(OS(=O)(=O)c3ccccc3Cl)c2)CC1` [Example 5, 2-Chlorobenzenesulfonic acid 3-[2-[1-(aminoiminomelhyl)piperazin-4-yl]ethoxy]phenyl ester diacetic acid salt] showed an inhibitory constant (Ki) of 29200 nM.

Compound `N=C(N)N1CCC(CNc2cccc(N(Cc3ccccc3)S(=O)(=O)c3ccccc3)c2)CC1` [Example 11, N-benzyl-N-[[3-(1-aminoiminomethyl)-piperidin-4-ylmethylamino]phenyl]benzenesulfonamide] returned a Ki at bovine trypsin of 5300 nM.

In turn, `N=C(N)N1CCC(COc2cc(OS(=O)(=O)c3ccccc3Cl)ccc2Cc2ccccc2)CC1` [Example 12, 2-Chlorobenzenesulfonic acid 3-[[1-aminoiminomethyl)piperidin-4-yl]methoxy]-4-benzylphenyl ester acetic acid salt] displayed an inhibition constant (Ki) at bovine α-chymotrypsin of 12600 nM.

“Benzenesulfonic acid 3-[[1-(aminoiminomethyl)piperidin-4-yl]methoxy]-5-methylphenyl ester acetic acid salt [Example 17]”: on human α-thrombin, affinity was put at a Ki of 36 nM.
